Measurements reported in patent US4017639A, “2-Hydroxy-3-nitro-1,4-naphthoquinones for the prophylaxis of certain allergies” (Beecham Group Limited, priority 1974, dated 1977).

System: PCA response
Experiment: rat Passive Cutaneous Anaphylaxis Test (PCA test)
Type: in vivo, rat (male Wistar)
Settings: sc, subcutaneous, as sodium salt
Protocol: All of the compounds of the formula (I) prepared in the preceding examples were tested in the rat Passive Cutaneous Anaphylaxis Test (PCA test) described below. They were administered as their sodium salts either in pH 7.2 phosphate buffer (for soluble salts) or as a suspension in 1% methyl cellulose (for insoluble salts).
Male Wistar rats of 250-300 g were injected intraperitoneally with 0.5 ml. of Bordatella pertussis vaccine (containing 4 × 10^10 dead organism per ml) and subcutaneously with 0.5 ml. of an emulsion of 100 mg of ovalbumin in 2 ml. of saline and 3 ml. of incomplete Freunds' adjuvant. Rats were bled by cardiac puncture on day 18, the blood was pooled and separated and serum stored at -20° and thawed only once before use.
0.1 ml. of each of six twofold serial dilutions of the serum in 0.9% saline were injected intradermally into separate sites on the shaved dorsal surface of 250-350 g. Male Wister rats. 72 hours later the animals were challenged by i.v. injection of 0.3 ml. of 1% ovalbumin mixed with 0.1 ml. of a 5% solution of pontamine sky blue dye both in isotonic saline buffered with pH 7.2 Sorenson buffer (P.B.S.). The rats were killed after 20 minutes and the diameter of the blue wheals at the antibody injection sites were measured. The starting dilution of the serum was adjusted so that there was no response, after challenge, at the site of injection of the highest dilution and a maximum response at the two or three lowest dilutions.
Amounts of the compounds were administered to rats by subcutaneous injection, into the nucal region, of a solution of the compound in P.B.S. or as a suspension in 1% methyl cellulose, each amount to a test group of six animals at a specified time prior to intravenous challenge with ovalbumin.
For those compounds having insoluble sodium salts, the salts were isolated by reaction of the free nitro compound with 2.5N sodium hydroxide and the filtered sodium salt washed free of alkali with water. The dried salts were then administered as a suspension in 1% methyl cellulose.

[1] = 10 min, time 10 mins before challenge
[2] = 0.5 h, time 30 mins before challenge

CCOc1ccc2c(c1)C(=O)C(O)=C([N+](=O)[O-])C2=O [Example 8, 6-Ethoxy-3-hydroxy-2-nitro-1,4-naphthoquinone]
inhibition in vivo at 5 mg/kg [1]: 25% | inhibition in vivo at 10 mg/kg [1]: 28% | inhibition in vivo at 20 mg/kg [1]: 54% | inhibition in vivo at 40 mg/kg [1]: 79%

O=C1C(O)=C([N+](=O)[O-])C(=O)c2cc3c(cc21)CCCC3 [Example 13, 2-Hydroxy-3-nitro-6,7-tetramethylene-1,4-naphtoquinone]
inhibition in vivo at 5 mg/kg [1]: 72% | inhibition in vivo at 10 mg/kg [1]: 80% | inhibition in vivo at 20 mg/kg [1]: 87% | inhibition in vivo at 40 mg/kg [1]: 90%

O=C1C([N+](=O)[O-])=C(O)C(=O)c2c(O)cccc21 [Example 3, 3,5-Dihydroxy-2-nitro-1,4-naphthoquinone]
inhibition in vivo at 25 mg/kg [2]: 14% | inhibition in vivo at 72 mg/kg (0.5 h, dose 72 mg/Kg, time 30 mins before challenge): 18%

O=C1C(O)=C([N+](=O)[O-])C(=O)c2ccc(-c3ccccc3)cc21 [Example 14, 2-Hydroxy-3-nitro-7-phenyl-1,4-naphthoquinone]
inhibition in vivo at 10 mg/kg [1]: 20% | inhibition in vivo at 20 mg/kg [1]: 12% | inhibition in vivo at 40 mg/kg [1]: 23% | inhibition in vivo at 80 mg/kg (10 min, dose 80 mg/Kg, time 10 mins before challenge): 23%

CCc1cc2c(cc1CC)C(=O)C([N+](=O)[O-])=C(O)C2=O [Example 12, 6,7-Diethyl-2-hydroxy-3-nitro-1,4-naphthoquinone]
inhibition in vivo at 1 mg/kg [1]: 11% | inhibition in vivo at 2 mg/kg [1]: 23% | inhibition in vivo at 4 mg/kg [1]: 26% | inhibition in vivo at 8 mg/kg (10 min, dose 8 mg/Kg, time 10 mins before challenge): 55%

Cc1ccc2c(c1)C(=O)C(O)=C([N+](=O)[O-])C2=O [Example 6, 3-Hydroxy-6-methyl-2-nitro-1,4-naphthoquinone]
inhibition in vivo at 5 mg/kg [1]: 19% | inhibition in vivo at 10 mg/kg [1]: 36% | inhibition in vivo at 20 mg/kg [1]: 33% | inhibition in vivo at 40 mg/kg [1]: 52%

COc1cc2c(cc1OC)C(=O)C([N+](=O)[O-])=C(O)C2=O [Example 9, 6.7-Dimethoxy-2-hydroxy-3-nitro-1,4-naphthoquinone]
inhibition in vivo at 5 mg/kg [1]: 28% | inhibition in vivo at 10 mg/kg [1]: 39% | inhibition in vivo at 20 mg/kg [1]: 75% | inhibition in vivo at 40 mg/kg [1]: 84%

COc1ccc2c(c1)C(=O)C(O)=C([N+](=O)[O-])C2=O [Example 5, 3-Hydroxy-6-methoxy-2-nitro-1,4-naphthoquinone]
inhibition in vivo at 5 mg/kg [1]: 22% | inhibition in vivo at 10 mg/kg [1]: 41% | inhibition in vivo at 20 mg/kg [1]: 65% | inhibition in vivo at 40 mg/kg [1]: 85%

O=C1C(O)=C([N+](=O)[O-])C(=O)c2ccc(Br)cc21 [Example 10, 6-Bromo-3-hydroxy-2-nitro-1.4-naphthoquinone]
inhibition in vivo at 100 mg/kg [1]: 5% | inhibition in vivo at 100 mg/kg [2]: 13%

O=C1C(O)=C([N+](=O)[O-])C(=O)c2ccc(F)cc21 [Example 11, 6-Fluoro-3-hydroxy-2-nitro-1,4-naphthoquinone]
inhibition in vivo at 100 mg/kg [1]: 13% | inhibition in vivo at 100 mg/kg [2]: 16%

Cc1cc2c(cc1C)C(=O)C([N+](=O)[O-])=C(O)C2=O [Example 7, 6,7-Dimethyl-2-hydroxy-3-nitro-1,4-naphthoquinone]
inhibition in vivo at 25 mg/kg [2]: 18% | inhibition in vivo at 100 mg/kg [2]: 27%

O=C1C(O)=C([N+](=O)[O-])C(=O)c2ccccc21 [Example 1, 2-Hydroxy-3-nitro-1,4naphthoquinone]
inhibition in vivo at 25 mg/kg [2]: 16% | inhibition in vivo at 100 mg/kg [2]: 30%

Cc1ccc2c(c1)C(=O)C([N+](=O)[O-])=C(O)C2=O [Example 2, 2-Hydroxy-6-methyl-3-nitro-1,4-naphthoquinone]
inhibition in vivo at 25 mg/kg [2]: 33% | inhibition in vivo at 100 mg/kg [2]: 30%

Cc1cccc2c1C(=O)C(O)=C([N+](=O)[O-])C2=O [Example 4, 3-Hydroxy-5-methyl-2-nitro-1,4-naphthoquinone]
inhibition in vivo at 0.5 mg/kg (10 min, dose 0.5 mg/Kg, time 10 mins before challenge): 6% | inhibition in vivo at 1 mg/kg [1]: 16% | inhibition in vivo at 2 mg/kg [1]: 16% | inhibition in vivo at 4 mg/kg [1]: 29%
